In this assay the target is T1, human B1 (Homo sapiens, UniProt P46663).
T1 construct: host or cells: CHO-K1
T1 sequence (P46663 1-353): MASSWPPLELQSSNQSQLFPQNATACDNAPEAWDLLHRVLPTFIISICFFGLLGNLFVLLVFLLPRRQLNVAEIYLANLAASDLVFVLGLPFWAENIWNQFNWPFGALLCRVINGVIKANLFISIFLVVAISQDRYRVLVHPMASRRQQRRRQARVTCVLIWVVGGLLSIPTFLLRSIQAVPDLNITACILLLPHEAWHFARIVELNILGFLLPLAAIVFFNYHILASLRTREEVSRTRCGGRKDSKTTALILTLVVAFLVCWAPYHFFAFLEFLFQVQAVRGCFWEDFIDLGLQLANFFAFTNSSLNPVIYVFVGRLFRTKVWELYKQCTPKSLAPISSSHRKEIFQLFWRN
Description: Calcium flux assay for Bradykinin B1 antagonist, CHO-K1 cell line expressing human B1. The assay is classed as cell-based. The conditions noted are these: CHO-K1 cells expressing human B1, agonist Lys-(Des-Arg)-Bradykinin, read-out: Potency (IC50 value against human B1). An outline of the steps: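 CHO-K1 cells expressing human B1, loaded with 5 μM Fluo-4AM (2 h, 37° C) in HEPES buffer pH 7.4 with probenecid and 0.1% BSA, were preincubated 30 min at 25° C with compound (8 concentrations, triplicate, 1% DMSO) before B1 agonist addition. Ca2+ fluorescence monitored at 538 nm; background-normalized integrated values plotted against log antagonist concentration.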

Counter-ions that a name gives are not always drawn.

One may read the IC50 as the concentration that inhibits the measured activity by half.

With `COc1cc(C)c(S(=O)(=O)N(C)Cc2nc(C(=O)N(C)CCc3ccc(C4=NCCN4)cc3)cs2)c(C)c1` [Ex 80, N-{2-[4-(4,5-dihydro-1H-imidazol-2-yl)phenyl]ethyl}-2-({[(4-methoxy-2,6-dimethylphenyl)sulfonyl](methyl)amino}methyl)-N-methyl-1,3-thiazole-4-carboxamide], the IC50 was in the range of 100 to 1000 nM. Under `COc1cc(C)c(S(=O)(=O)N(C)Cc2nc(C(=O)N(C)Cc3ccc(C4=NCCN4)cc3)cs2)c(C)c1` [Ex 81, N-[4-(4,5-dihydro-1H-imidazol-2-yl)benzyl]-2-({[(4-methoxy-2,6-dimethylphenyl)sulfonyl](methyl)amino}methyl)-N-methyl-1,3-thiazole-4-carboxamide] stands 100 to 1000 nM; under `COc1cc(C)c(S(=O)(=O)N(Cc2cc(C(=O)NCc3ccc(C4=NCCN4)cc3)co2)C2CC2)c(C)c1` [Ex 82, 5-({cyclopropyl[(4-methoxy-2,6-dimethylphenyl)sulfonyl]amino}methyl)-N-[4-(4,5-dihydro-1H-imidazol-2-yl)benzyl]furan-3-carboxamide trifluoroacetate], 100 to 1000 nM. For the molecule `COc1cc(C)c(S(=O)(=O)N(Cc2cc(C(=O)N(C)Cc3ccc(C4=NCCN4)cc3)co2)C2CC2)c(C)c1` [Ex 83, 5-({cyclopropyl[(4-methoxy-2,6-dimethylphenyl)sulfonyl]amino}methyl)-N-[4-(4,5-dihydro-1H-imidazol-2-yl)benzyl]-N-methylfuran-3-carboxamide trifluoroacetate], the IC50 lay within 10 to 100 nM. Consider `COc1cc(C)c(S(=O)(=O)N(Cc2cc(C(=O)N(C)CCc3ccc(C4=NCCN4)cc3)co2)C2CC2)c(C)c1` [Ex 84, 5-({cyclopropyl[(4-methoxy-2,6-dimethylphenyl)sulfonyl]amino}methyl)-N-{2-[4-(4,5-dihydro-1H-imidazol-2-yl)phenyl]ethyl}-N-methylfuran-3-carboxamide trifluoroacetate], for which the IC50 was under 10 nM. Next, `COc1cc(C)c(S(=O)(=O)N(C)C(C)c2cc(C(=O)NCCc3ccc(C4=NCCN4)cc3)co2)c(C)c1` (stereo not shown) [Ex 85, N-{2-[4-(4,5-dihydro-1H-imidazol-2-yl)phenyl]ethyl}-5-(1-{[(4-methoxy-2,6-dimethylphenyl)sulfonyl](methyl)amino}ethyl)furan-3-carboxamide trifluoroacetamide]: 100 to 1000 nM; `COc1cc(C)c(S(=O)(=O)N(C)Cc2cc(C(=O)NCCc3ccc(C4=NCCN4)cc3)co2)c(CO)c1` [Ex 86, N-{2-[4-(4,5-Dihydro-1H-imidazol-2-yl)phenyl]ethyl}-5-{[{[2-(hydroxymethyl)-4-methoxy-6-methylphenyl]sulfonyl}(methyl)amino]methyl}furan-3-carboxamide trifluoroacetate]: 100 to 1000 nM; `Cc1cc(O)cc(C)c1S(=O)(=O)N(C)Cc1cc(C(=O)N(C)CCc2ccc(C3=NCCN3)cc2)co1` [Ex 87, N-{2-[4-(4,5-Dihydro-1H-imidazol-2-yl)phenyl]ethyl}-5-({[(4-hydroxy-2,6-dimethylphenyl)sulfonyl](methyl)amino}methyl)-N-methylfuran-3-carboxamide, trifluoroacetate]: 10 to 100 nM.

Turning to `COc1cc(C)c(S(=O)(=O)N(C)Cc2cc(C(=O)N(C)Cc3ccc(C(C)N4CCCC4)cc3)co2)c(C)c1` (stereo not shown) [Ex 88, 5-({[(4-Methoxy-2,6-dimethylphenyl)sulfonyl](methyl)amino}methyl)-N-methyl-N-[4-(1-pyrrolidin-1-ylethyl)benzyl]furan-3-carboxamide trifluoroacetate], the IC50 lay in the range of 100 to 1000 nM.

For the molecule `COc1cc(C)c(S(=O)(=O)N(Cc2cc(C(=O)N3CCN(CC4CCN(C)CC4)CC3)co2)C2CC2)c(C)c1` [Ex 89, N-Cyclopropyl-4-methoxy-2,6-dimethyl-N-{[4-({4-[(1-methylpiperidin-4-yl)methyl]piperazin-1-yl}carbonyl)furan-2-yl]methyl}benzenesulfonamide], the concentration for half-maximal inhibition (IC50) was under 10 nM. Under `COc1cc(C)c(S(=O)(=O)N(C)Cc2cc(C(=O)NC(C)c3ccc(CN4CCCC4)cc3)co2)c(C)c1` (stereo not shown) [Ex 90, 5-({[(4-Methoxy-2,6-dimethylphenyl)sulfonyl](methyl)amino}methyl)-N-{1-[4-(pyrrolidin-1-ylmethyl)phenyl]ethyl}furan-3-carboxamide] stands 100 to 1000 nM. Next, `COc1cc(C)c(S(=O)(=O)N(C)Cc2cc(C(=O)NC(C)c3ccc(CN4CCC(O)C4)cc3)co2)c(C)c1` (stereo not shown) [Ex 91, N-(1-{4-[(3-Hydroxypyrrolidin-1-yl)methyl]phenyl}ethyl)-5-({[(4-methoxy-2,6-dimethylphenyl)sulfonyl](methyl)amino}methyl)furan-3-carboxamide]: 100 to 1000 nM. Under `COc1cc(C)c(S(=O)(=O)N(C)Cc2cc(C(=O)NCCc3ccc(CN4CC[C@H](N(C)C)C4)cc3)co2)c(C)c1` [Ex 92, N-[2-(4-{[(3S)-3-(Dimethylamino)pyrrolidin-1-yl]methyl}phenyl)ethyl]-5-({[(4-methoxy-2,6-dimethylphenyl)sulfonyl](methyl)amino}methyl)furan-3-carboxamide, trifluoroacetate] stands 100 to 1000 nM; under `COc1cc(C)c(S(=O)(=O)N(C)Cc2cc(C(=O)NCc3ccc(C4=NCC(C)(C)N4)cc3)co2)c(C)c1` [Ex 93, N-[4-(5,5-Dimethyl-4,5-dihydro-1H-imidazol-2-yl)benzyl]-5-({[(4-methoxy-2,6-dimethylphenyl)sulfonyl](methyl)amino}methyl)furan-3-carboxamide trifluoroacetate], 10 to 100 nM. In the case of `COc1cc(C)c(S(=O)(=O)N(C)Cc2cc(C(=O)NCCc3ccc(C4=NCC(C)(C)N4)cc3)co2)c(C)c1` [Ex 94, N-{2-[4-(5,5-Dimethyl-4,5-dihydro-1H-imidazol-2-yl)phenyl]ethyl}-5-({[(4-methoxy-2,6-dimethylphenyl)sulfonyl](methyl)amino}methyl)furan-3-carboxamide trifluoroacetate], the half-inhibitory concentration (IC50) is under 10 nM. Next, `COc1cc(C)c(S(=O)(=O)N(C)Cc2cc(C(=O)N3CCCC(c4ccc(CN5CCCC5)cc4)C3)co2)c(C)c1` (stereo not shown) [Ex 95, 4-Methoxy-N,2,6-trimethyl-N-{[4-({3-[4-(pyrrolidin-1-ylmethyl)phenyl]piperidin-1-yl}carbonyl)furan-2-yl]methyl}benzenesulfonamide trifluoroacetamide]: 100 to 1000 nM. On to `COc1cc(C)c(S(=O)(=O)N(C)Cc2cc(C(=O)NCc3ccc(CNCc4ccncc4)cc3)co2)c(C)c1` [Ex 96, 5-({[(4-Methoxy-2,6-dimethylphenyl)sulfonyl](methyl)amino}methyl)-N-(4-{[(pyridin-4-ylmethyl)amino]methyl}benzyl)furan-3-carboxamide trifluoroacetate], for which the IC50 was in the range of 100 to 1000 nM. On to `COc1cc(C)c(S(=O)(=O)N(C)Cc2cc(C(=O)NCc3ccc(CN4CCC4)cc3)co2)c(C)c1` [Ex 97, N-[4-(Azetidin-1-ylmethyl)benzyl]-5-({[(4-methoxy-2,6-dimethylphenyl)sulfonyl](methyl)amino}methyl)furan-3-carboxamide trifluoroacetate], for which the concentration for half-maximal inhibition (IC50) is 10 to 100 nM. Regarding `COc1cc(C)c(S(=O)(=O)N(C)Cc2cc(C(=O)N(C)CCc3ccc(C4=NCCN4C)cc3)co2)c(C)c1` [Ex 98, 5-({[(4-Methoxy-2,6-dimethylphenyl)sulfonyl](methyl)amino}methyl)-N-methyl-N-{2-[4-(1-methyl-4,5-dihydro-1H-imidazol-2-yl)phenyl]ethyl}furan-3-carboxamide trifluoroacetamide], the 50% inhibitory concentration (IC50) is 100 to 1000 nM.

Values taken from patent publication US8623859B2, “Bradykinin B1 antagonists” (Evotec AG, priority 2008, dated 2014).
